Measured values: the NIST ThermoML archive (doi:10.1016/j.jct.2014.01.012)

Experiment: xn = mol fraction of the nth substance listed
Settings: 101 kPa, Liquid

CCCCCCCC[n+]1ccn(C)c1.F[P-](F)(F)(F)(F)F [1-octyl-3-methylimidazolium hexafluorophosphate] + CCOC(C)=O
Settings	mass density [kg/m3]	speed of sound [m/s]
293.15 K, x1 = 0.1056	992.13	1246.8
293.15 K, x1 = 0.2064	1052.79	1300.8
293.15 K, x1 = 0.308	1097.25	1323
293.15 K, x1 = 0.4094	1130.77	1339
293.15 K, x1 = 0.4991	1154.21	1349
293.15 K, x1 = 0.5916	1174.12	1356.8
293.15 K, x1 = 0.694	1192.49	1363.1
293.15 K, x1 = 0.8121	1210.2	1368.1
293.15 K, x1 = 0.8895	1220.31	1374.2
293.15 K, x1 = 1	1222.81	1388.2
298.15 K, x1 = 0.1056	987.426	1228.2
298.15 K, x1 = 0.2064	1048.5	1284.8
298.15 K, x1 = 0.308	1093.04	1303.4
298.15 K, x1 = 0.4094	1126.53	1325
298.15 K, x1 = 0.4991	1150	1335.1
298.15 K, x1 = 0.5916	1169.99	1342.7
298.15 K, x1 = 0.694	1188.53	1348.9
298.15 K, x1 = 0.8121	1206.48	1353.8
298.15 K, x1 = 0.8895	1216.63	1358.3
298.15 K, x1 = 1	1218.9	1373.4
303.15 K, x1 = 0.1056	982.485	1209.8
303.15 K, x1 = 0.2064	1044	1268.9
303.15 K, x1 = 0.308	1088.65	1288.2
303.15 K, x1 = 0.4094	1122.2	1309
303.15 K, x1 = 0.4991	1145.83	1320.9
303.15 K, x1 = 0.5916	1166.01	1328.6
303.15 K, x1 = 0.694	1184.79	1334.7
303.15 K, x1 = 0.8121	1202.87	1339.7
303.15 K, x1 = 0.8895	1212.97	1345.2
303.15 K, x1 = 1	1214.96	1359.3
308.15 K, x1 = 0.1056	977.389	1191.5
308.15 K, x1 = 0.2064	1039.34	1253
308.15 K, x1 = 0.308	1084.23	1273.5
308.15 K, x1 = 0.4094	1117.99	1298
308.15 K, x1 = 0.4991	1141.76	1306.3
308.15 K, x1 = 0.5916	1162.11	1314.2
308.15 K, x1 = 0.694	1180.99	1320.5
308.15 K, x1 = 0.8121	1199.1	1325.6
308.15 K, x1 = 0.8895	1209.17	1331.3
308.15 K, x1 = 1	1211.13	1345.8
313.15 K, x1 = 0.1056	972.526	1173.3
313.15 K, x1 = 0.2064	1034.74	1237.5
313.15 K, x1 = 0.308	1079.71	1258.3
313.15 K, x1 = 0.4094	1113.66	1282
313.15 K, x1 = 0.4991	1137.66	1292.8
313.15 K, x1 = 0.5916	1158.28	1300.8
313.15 K, x1 = 0.694	1177.41	1307.2
313.15 K, x1 = 0.8121	1195.57	1312.3
313.15 K, x1 = 0.8895	1205.55	1318.4
313.15 K, x1 = 1	1207.33	1332.7
318.15 K, x1 = 0.1056	967.143	1155.2
318.15 K, x1 = 0.2064	1029.94	1222.1
318.15 K, x1 = 0.308	1075.23	1243.5
318.15 K, x1 = 0.4094	1109.39	1268
318.15 K, x1 = 0.4991	1133.54	1279.3
318.15 K, x1 = 0.5916	1154.33	1287.5
318.15 K, x1 = 0.694	1173.67	1294
318.15 K, x1 = 0.8121	1192.1	1299.2
318.15 K, x1 = 0.8895	1202.11	1305.2
318.15 K, x1 = 1	1203.5	1320.1
323.15 K, x1 = 0.1056	962.069	1132.4
323.15 K, x1 = 0.2064	1025.26	1206.9
323.15 K, x1 = 0.308	1070.7	1229.1
323.15 K, x1 = 0.4094	1105.03	1250
323.15 K, x1 = 0.4991	1129.38	1265.9
323.15 K, x1 = 0.5916	1150.44	1274.2
323.15 K, x1 = 0.694	1170.05	1280.9
323.15 K, x1 = 0.8121	1188.56	1286.3
323.15 K, x1 = 0.8895	1198.5	1292.2
323.15 K, x1 = 1	1199.67	1307.7
